For one assay, the target named is T1, cyclooxygenase (Mus musculus, UniProt P22437).
T1 construct: A cell suspension containing peritoneal cells from male mice 8-10 weeks old was obtained in a known manner; endogenous in cells; host or cells: mouse peritoneal macrophages (primary, adherent)
T1 sequence (P22437 27-602): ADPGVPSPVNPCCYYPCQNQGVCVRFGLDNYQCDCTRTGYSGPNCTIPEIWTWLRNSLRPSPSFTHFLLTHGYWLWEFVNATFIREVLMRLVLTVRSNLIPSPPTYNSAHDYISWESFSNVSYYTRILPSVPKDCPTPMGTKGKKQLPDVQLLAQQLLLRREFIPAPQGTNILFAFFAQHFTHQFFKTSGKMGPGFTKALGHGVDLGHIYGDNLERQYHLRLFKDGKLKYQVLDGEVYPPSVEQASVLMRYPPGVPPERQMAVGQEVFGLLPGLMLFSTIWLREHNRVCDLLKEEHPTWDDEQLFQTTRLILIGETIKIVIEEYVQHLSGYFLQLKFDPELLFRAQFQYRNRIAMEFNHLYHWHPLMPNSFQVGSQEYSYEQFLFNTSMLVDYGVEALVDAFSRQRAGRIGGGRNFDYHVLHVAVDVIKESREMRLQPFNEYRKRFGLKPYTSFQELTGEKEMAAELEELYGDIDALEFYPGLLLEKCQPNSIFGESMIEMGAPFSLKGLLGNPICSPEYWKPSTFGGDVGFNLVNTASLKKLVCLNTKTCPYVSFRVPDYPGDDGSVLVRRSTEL
Description: In vitro cyclooxygenase inhibition, release of 6-keto-PGF1α from zymosan-stimulated peritoneal macrophages. It counts as cell-based. As to conditions: zymosan-stimulated mouse peritoneal macrophage cells, 10^-5 mole/l. From the text:
(§1) 5. In Vitro Determination of Cyclooxygenase Inhibition And 5-lipoxygenase Inhibition.
(§2) After a cell is activated, arachidonic acid contained in cell membranes is metabolized in two ways. Leucotrienes, inter alia leucotriene C4, are formed due to the action of the enzyme 5-lipoxygenase (=5-LO), and prostanoids are formed due to the action of the enzyme cyclooxygenase (=CO). In in vitro systems these metabolites are secreted from the cell.
(§3) To evaluate the cyclooxygenase-inhibiting and 5-lipoxygenase-inhibiting properties of the test substances, their inhibitory activity on the biosynthesis of the arachidonic acid derivatives leucotriene C4 (=LTC4) and 6-keto-prostaglandin F1α (=6-keto-PGF1α) was determined in vitro on mouse peritoneal macrophage cells. For this purpose the LTC4 and 6-keto-PGF1α contents of a mouse peritoneal macrophage cell culture medium were determined by zymosan stimulation as described by Scott et al. (J. Exp. Med. 152 (1980), 324-335) and by Fradin et al., (Prostaglandins, 33 (1987), 579-589).
(§4) A cell suspension containing peritoneal cells from male mice 8-10 weeks old was obtained in a known manner. A solution marketed under the designation RPMI 1640 (Manufactured by Gibco) was used as the cell culture medium, to which heparin (10 international units/ml) and antibiotics were added according to the procedure of Bonney et al. (Biochem. J. 176 (1978) 422-433). The cell suspension was adjusted to a cell concentration of 10^6 cells per ml and distributed uniformly on titer dishes containing 24 1-ml titer cells (wells). These were kept for two hours in a humidified incubator filled with air enriched with 7% CO2. Cells not adhering to the titer well walls were then removed by washing. The remaining macrophage cells adhering to the walls were incubated for about 12 hours in a suspension medium to which 0.1% of bovine serum albumin (BSA=Bovine Serum Albumin) was added. The suspension medium was then replaced by a Hanks salt solution (=Hanks Balanced Salt Solution=HBSS) with 10 mmoles of HEPES (=hydroxyethylpiperazinoethanesulfonic acid) to which a 0.1% strength solution of the test substances in aqueous, 1% strength dimethylformamide or only the solvent had been added. After 15 minutes the arachidonic acid metabolism was stimulated by adding […] of zymosan (=glycoprotein mixture isolated from cell walls of beer yeast, Saccharomyces cerevisiae, Manufactured by Sigma Chemical Co., Munich) per titre cell. After 2 hours samples of the respective supernatant liquid in each cell were examined for their 6-keto-PGF1α and LTC4 contents by an enzyme immunoassay (=EIA). This EIA is carried out following the method of Pradelles et al. (Analytical Chem. 57 (1985), 1170-1173). The determination of LTC4 and the determination of 6-keto-PGF1α were each carried out on suitable dilutions of the samples (1:50 to 1:250 for the LTC4 determination and 1:250 to 1:1,250 for the 6-keto-PGF1α determination) in comparison with a comparative scale. To determine the inhibiting effect of a 10^-5 molar concentration of the compounds, the amounts of reference eicosanoid were determined, and the inhibiting effect was calculated therefrom in % inhibition compared to the measurements of the zymosan controls.

The target of a further assay is T2, 5-lipoxygenase (Mus musculus, UniProt P48999).
T2 construct: A cell suspension containing peritoneal cells from male mice 8-10 weeks old was obtained in a known manner; endogenous in cells; host or cells: mouse peritoneal macrophages (primary, adherent)
T2 sequence (P48999 1-674): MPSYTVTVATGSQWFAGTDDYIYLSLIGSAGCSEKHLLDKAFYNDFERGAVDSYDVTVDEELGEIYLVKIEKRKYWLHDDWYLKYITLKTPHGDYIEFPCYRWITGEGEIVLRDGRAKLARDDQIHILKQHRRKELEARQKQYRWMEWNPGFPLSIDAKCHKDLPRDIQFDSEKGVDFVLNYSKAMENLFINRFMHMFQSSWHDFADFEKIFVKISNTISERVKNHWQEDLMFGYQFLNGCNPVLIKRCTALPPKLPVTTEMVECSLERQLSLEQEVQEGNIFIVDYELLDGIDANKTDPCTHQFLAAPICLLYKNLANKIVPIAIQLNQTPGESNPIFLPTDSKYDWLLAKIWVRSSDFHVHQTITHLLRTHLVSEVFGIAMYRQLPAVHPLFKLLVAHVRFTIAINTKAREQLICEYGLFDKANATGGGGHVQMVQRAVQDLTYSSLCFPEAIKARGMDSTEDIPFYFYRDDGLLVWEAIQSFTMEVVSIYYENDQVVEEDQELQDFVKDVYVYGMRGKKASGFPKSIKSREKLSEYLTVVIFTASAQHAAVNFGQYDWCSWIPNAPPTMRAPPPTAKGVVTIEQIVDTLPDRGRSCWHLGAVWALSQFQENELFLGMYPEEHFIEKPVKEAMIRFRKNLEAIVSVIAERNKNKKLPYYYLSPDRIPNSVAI
The assay can be described thus: In vitro 5-lipoxygenase inhibition, release of LTC4 from zymosan-stimulated peritoneal macrophages. As to conditions: zymosan-stimulated mouse peritoneal macrophage cells, 10^-5 mole/l. It counts as cell-based.
Excerpt: as §1, §2, §3, §4

Each structure is given as a SMILES string.

`Cc1ccnc(N2CCN(C3Sc4ccccc4NC3=O)CC2)c1` (centres unmarked) [Example 5, 2-[4-(4-methylpyridin-2-yl)-piperazin-1-yl]-2H-1,4-benzothiazine-3(4H)-one]: the “% inhibition upon release of 6-keto-PGF1α” value at cyclooxygenase is given as 36%. At 5-lipoxygenase, the “% inhibition upon release of LTC4” value amounted to 72%.
